From patent publication US20230072683A1, “PYRIDO-PYRIMIDIN DERIVATIVES AND PHARMACEUTICAL COMPOSITION, FOR USE IN PREVENTING OR TREATING PI3 KINASE RELATED DISEASES, COMPRISING SAME AS ACTIVE INGREDIENT” (BORYUNG PHARMACEUTICAL CO., LTD, priority 2019, published 2023)
Where two headings read alike, the source gives them in different places.

Columns and labels:
[1] = molecular target: PI3K-δ (PI3K(p1108/p857) (h)) (Homo sapiens, UniProt O00329); assay: Evaluation of inhibitory activity against PI3K-δ (HTRF kinase assay); type: biochemical; conditions: for inhibition at 0.01 µM: compound concentration 0.01 μM, read-out: EXP_VALUE(% Inhibition) PI3K-δ 0.01 μM; for inhibition at 0.1 µM: read-out: EXP_VALUE(% Inhibition) PI3K-δ 0.1 μM
Summary of the method: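 HTRF read-out (665/620 nm ratio ×10000) used Eu-labelled anti-GST, GST-tagged GRP1 PH domain and streptavidin-allophycocyanin after EDTA/PIP3 stop.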

[2] = molecular target: DNA-PK(h) (Homo sapiens, UniProt P78527); assay: Evaluation of inhibitory activity against DNA-PK (HTRF kinase assay, GST-cMyc-p53 substrate); type: biochemical; conditions: for inhibition at 0.01 µM: compound concentration 0.01 μM, read-out: EXP_VALUE(% Inhibition) DNA-PK(h) 0.01 μM; for inhibition at 0.1 µM: read-out: EXP_VALUE(% Inhibition) DNA-PK(h) 0.1 μM
Summary of the method: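 Human DNA-PK with 50 μM GST-cMyc-p53 substrate; reaction started with Mg/ATP, run 30 min at room temperature, stopped with EDTA. Phospho-Ser15 p53 detected by HTRF (Eu anti-phospho-Ser15, d2 anti-GST), signal = 10000×(Em 665/Em 620).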

PI3K-δ (PI3K(p1108/p857) (h)), sequence (O00329 whole entry, the tested form may be a part): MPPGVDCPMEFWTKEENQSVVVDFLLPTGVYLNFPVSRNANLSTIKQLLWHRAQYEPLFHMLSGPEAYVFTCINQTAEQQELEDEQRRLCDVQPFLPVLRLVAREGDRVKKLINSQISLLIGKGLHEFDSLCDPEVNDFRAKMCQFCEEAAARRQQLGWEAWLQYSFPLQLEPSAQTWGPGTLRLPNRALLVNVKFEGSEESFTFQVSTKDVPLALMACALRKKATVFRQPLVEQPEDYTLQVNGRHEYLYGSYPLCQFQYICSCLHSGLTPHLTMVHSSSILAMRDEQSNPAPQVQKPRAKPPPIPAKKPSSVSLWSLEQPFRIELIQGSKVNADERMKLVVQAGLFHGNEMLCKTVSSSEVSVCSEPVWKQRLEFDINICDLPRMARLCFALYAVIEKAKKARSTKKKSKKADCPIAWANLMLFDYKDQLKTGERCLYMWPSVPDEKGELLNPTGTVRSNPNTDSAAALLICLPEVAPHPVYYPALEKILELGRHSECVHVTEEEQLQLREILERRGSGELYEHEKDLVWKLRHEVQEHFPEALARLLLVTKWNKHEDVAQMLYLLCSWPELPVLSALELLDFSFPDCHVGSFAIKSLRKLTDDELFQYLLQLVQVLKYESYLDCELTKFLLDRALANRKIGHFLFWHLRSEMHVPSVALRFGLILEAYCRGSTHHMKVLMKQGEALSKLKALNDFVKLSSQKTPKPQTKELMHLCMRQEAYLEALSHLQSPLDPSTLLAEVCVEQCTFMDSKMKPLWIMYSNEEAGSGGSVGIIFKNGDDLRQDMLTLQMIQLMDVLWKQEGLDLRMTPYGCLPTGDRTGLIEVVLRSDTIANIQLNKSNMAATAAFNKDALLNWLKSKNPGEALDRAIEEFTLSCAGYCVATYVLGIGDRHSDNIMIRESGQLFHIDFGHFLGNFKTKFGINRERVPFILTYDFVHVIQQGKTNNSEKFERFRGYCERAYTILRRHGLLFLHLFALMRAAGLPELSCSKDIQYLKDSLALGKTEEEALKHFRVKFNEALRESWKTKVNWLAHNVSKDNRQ
PI3K-δ (PI3K(p1108/p857) (h)), sequence (P27986 whole entry partner, the tested form may be a part): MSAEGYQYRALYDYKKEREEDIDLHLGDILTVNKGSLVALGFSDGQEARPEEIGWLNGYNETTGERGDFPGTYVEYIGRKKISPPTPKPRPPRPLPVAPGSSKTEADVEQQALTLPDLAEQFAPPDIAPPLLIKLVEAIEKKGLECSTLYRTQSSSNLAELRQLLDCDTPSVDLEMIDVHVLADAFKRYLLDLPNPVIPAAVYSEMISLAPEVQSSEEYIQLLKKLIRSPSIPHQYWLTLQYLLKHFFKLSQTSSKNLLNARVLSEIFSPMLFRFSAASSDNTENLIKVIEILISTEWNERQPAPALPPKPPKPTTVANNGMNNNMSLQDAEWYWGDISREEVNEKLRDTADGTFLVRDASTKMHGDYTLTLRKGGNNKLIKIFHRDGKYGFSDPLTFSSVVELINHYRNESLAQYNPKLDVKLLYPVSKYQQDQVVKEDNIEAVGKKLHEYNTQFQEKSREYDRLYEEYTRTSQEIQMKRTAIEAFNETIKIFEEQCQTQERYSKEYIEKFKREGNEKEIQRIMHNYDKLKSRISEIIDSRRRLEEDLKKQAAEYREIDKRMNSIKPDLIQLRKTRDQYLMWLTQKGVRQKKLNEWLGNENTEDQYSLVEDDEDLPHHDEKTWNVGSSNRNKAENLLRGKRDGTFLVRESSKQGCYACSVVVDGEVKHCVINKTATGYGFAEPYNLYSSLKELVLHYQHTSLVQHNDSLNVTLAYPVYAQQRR

SMILES	inhibition at 0.01 µM [1] [%]	inhibition at 0.01 µM [2] [%]	inhibition at 0.1 µM ([1]; compound concentration 0.1 μM) [%]	inhibition at 0.1 µM ([2]; compound concentration 0.1 μM) [%]	inhibition at 0.1 µM ([1]; compound at 0.1 μM) [%]	inhibition at 0.1 µM ([2]; compound at 0.1 μM) [%]
Cc1ccc(-c2cccc3c(Cl)c([C@H](C)Nc4ncnc5[nH]ccc(=O)c45)n(-c4ccccc4)c(=O)c23)c(C)n1 [Example 248, (S)-4-((1-(4-chloro-8-(2,6-dimethylpyridin-3-yl)-1-oxo-2-phenyl-1,2-dihydroisoquinolin-3-yl)ethyl)amino)pyrido[2,3-d]pyrimidin-5(8H)-one]	99	66				
C[C@H](Nc1ncnc2[nH]ccc(=O)c12)c1c(Cl)c2cccc(-c3cncc(S(C)(=O)=O)c3)c2c(=O)n1-c1ccccc1 [Example 218, (S)-4-((1-(4-chloro-8-(5-(methylsulfonyl)pyridin-3-yl)-1-oxo-2-phenyl-1,2-dihydroisoquinolin-3-yl)ethyl)amino)pyrido[2,3-d]pyrimidin-5(8H)-one]	99	85				
C[C@H](Nc1ncnc2[nH]ccc(=O)c12)c1cc2cccc(-c3cnn(C)c3)c2c(=O)n1-c1ccccc1 [Example 15, (S)-4-((1-(8-(1-methyl-1H-pyrazol-4-yl)-1-oxo-2-phenyl-1,2-dihydroisoquinolin-3-yl)ethyl)amino)pyrido[2,3-d]pyrimidin-5(8H)-one]	109	24	108	37		
CC(C)Oc1cc(-c2cccc3c(Cl)c([C@H](C)Nc4ncnc5[nH]ccc(=O)c45)n(-c4ccccc4)c(=O)c23)ccn1 [Example 180, (S)-4-((1-(4-chloro-8-(2-isopropoxypyridin-4-yl)-1-oxo-2-phenyl-1,2-dihydroisoquinolin-3-yl)ethyl)amino)pyrido[2,3-d]pyrimidin-5(8H)-one]	83	59				
C[C@H](Nc1ncnc2[nH]ccc(=O)c12)c1c(Cl)c2cccc(N3CCc4ccccc4C3)c2c(=O)n1-c1ccccc1 [Example 7, (S)-4′-chloro-3′-(1-((5-oxo-5,8-dihydropyrido[2,3-d]pyrimidin-4-yl)amino)ethyl)-2′-phenyl-3,4-dihydro-1H-(2,8′-biisoquinolin)-1′(2′H)-one]	77	26	108	62		
Cc1cc(-c2cccc3c(Cl)c([C@H](C)Nc4ncnc5[nH]ccc(=O)c45)n(-c4ccccc4)c(=O)c23)cc(C)c1O [Example 126, (S)-4-((1-(4-chloro-8-(4-hydroxy-3,5-dimethylphenyl)-1-oxo-2-phenyl-1,2-dihydroisoquinolin-3-yl)ethyl)amino)pyrido[2,3-d]pyrimidin-5(8H)-one]	74	70	94	96		
Cc1nc2ccc(-c3cccc4c(Cl)c([C@H](C)Nc5ncnc6[nH]ccc(=O)c56)n(-c5ccccc5)c(=O)c34)cc2o1 [Example 22, (S)-4-((1-(4-chloro-8-(2-methylbenzo[d]oxazol-6-yl)-1-oxo-2-phenyl-1,2-dihydroisoquinolin-3-yl)ethyl)amino)pyrido[2,3-d]pyrimidin-5(8H)-one]	89	69	93	97		
C[C@H](Nc1ncnc2[nH]ccc(=O)c12)c1c(Cl)c2cccc(-c3cc(O)c(O)c(F)c3)c2c(=O)n1-c1ccccc1 [Example 36, (S)-4-((1-(4-chloro-8-(3-fluoro-4,5-dihydroxyphenyl)-1-oxo-2-phenyl-1,2-dihydroisoquinolin-3-yl)ethyl)amino)pyrido[2,3-d]pyrimidin-5(8H)-one]	74	34				
C[C@H](Nc1ncnc2[nH]ccc(=O)c12)c1c(Cl)c2cccc(-c3ccc4c(c3)ncn4C)c2c(=O)n1-c1ccccc1 [Example 114, (S)-4-((1-(4-chloro-8-(1-methyl-1H-benzo[d]imidazol-5-yl)-1-oxo-2-phenyl-1,2-dihydroisoquinolin-3-yl)ethyl)amino)pyrido[2,3-d]pyrimidin-5(8H)-one]	87	77	95	97		
Cc1ccsc1-c1cccc2c(Cl)c([C@H](C)Nc3ncnc4[nH]ccc(=O)c34)n(-c3ccccc3)c(=O)c12 [Example 243, (S)-4-((1-(4-chloro-8-(3-methylthiophen-2-yl)-1-oxo-2-phenyl-1,2-dihydroisoquinolin-3-yl)ethyl)amino)pyrido[2,3-d]pyrimidin-5(8H)-one]	45	32				
Cc1ncc(-c2cccc3c(Cl)c([C@H](C)Nc4ncnc5[nH]ccc(=O)c45)n(-c4ccccc4)c(=O)c23)cn1 [Example 136, (S)-4-((1-(4-chloro-8-(2-methylpyrimidin-5-yl)-1-oxo-2-phenyl-1,2-dihydroisoquinolin-3-yl)ethyl)amino)pyrido[2,3-d]pyrimidin-5(8H)-one]	83	75	93	97		

Now from value to molecule:

inhibition at 0.01 µM [1] [%]	inhibition at 0.01 µM [2] [%]	inhibition at 0.1 µM ([1]; compound concentration 0.1 μM) [%]	inhibition at 0.1 µM ([2]; compound concentration 0.1 μM) [%]	inhibition at 0.1 µM ([1]; compound at 0.1 μM) [%]	inhibition at 0.1 µM ([2]; compound at 0.1 μM) [%]	SMILES
37	-1					C[C@H](Nc1ncnc2[nH]ccc(=O)c12)c1c(Cl)c2cccc(C3OCC(C)(C)CO3)c2c(=O)n1-c1ccccc1 [Example 358, (S)-4-((1-(4-chloro-8-(5,5-dimethyl-1,3-dioxan-2-yl)-1-oxo-2-phenyl-1,2-dihydroisoquinolin-3-yl)ethyl)amino)pyrido[2,3-d]pyrimidin-5(8H)-one]
6	-4					C[C@H](Nc1ncnc2[nH]ccc(=O)c12)c1c(Cl)c2cccc(C(C)(C)O)c2c(=O)n1-c1ccccc1 [Example 360, (S)-4-((1-(4-chloro-8-(2-hydroxypropan-2-yl)-1-oxo-2-phenyl-1,2-dihydroisoquinolin-3-yl)ethyl)amino)pyrido[2,3-d]pyrimidin-5(8H)-one]
42.4	23.2	65.6	64.8			C[C@H](Nc1ncnc2[nH]ccc(=O)c12)c1c(Cl)c2cccc(C#Cc3cnn(C)c3)c2c(=O)n1-c1ccccc1 [Example 309, (S)-4-((1-(4-chloro-8-((1-methyl-1H-pyrazol-4-yl)ethynyl)-1-oxo-2-phenyl-1,2-dihydroisoquinolin-3-yl)ethyl)amino)pyrido[2,3-d]pyrimidin-5(8H)-one]
22	12	65	59			CCNc1cccc2c(Cl)c([C@H](C)Nc3ncnc4[nH]ccc(=O)c34)n(-c3ccccc3)c(=O)c12 [Example 325, (S)-4-((1-(4-chloro-8-(ethylamino)-1-oxo-2-phenyl-1,2-dihydroisoquinolin-3-yl)ethyl)amino)pyrido[2,3-d]pyrimidin-5(8H)-one]
77	6	89	52			Cc1c[nH]c2ccc(-c3cccc4cc([C@H](C)Nc5ncnc6[nH]ccc(=O)c56)n(-c5ccccc5)c(=O)c34)cc12 [Example 263, (S)-4-((1-(8-(3-methyl-1H-indol-5-yl)-1-oxo-2-phenyl-1,2-dihydroisoquinolin-3-yl)ethyl)amino)pyrido[2,3-d]pyrimidin-5(8H)-one]
				71	28	CCC[S@@](=N)(=O)c1cccc2c(Cl)c([C@H](C)Nc3ncnc4[nH]ccc(=O)c34)n(-c3ccccc3)c(=O)c12 [Example 408, 4-(((S)-1-(4-chloro-1-oxo-2-phenyl-8-((R)-propylsulfonimidoyl)-1,2-dihydroisoquinolin-3-yl)ethyl)amino)pyrido[2,3-d]pyrimidin-5(8H)-one]
				80	74	CCc1ncc(-c2cccc3c(Cl)c([C@H](C)Nc4ncnc5[nH]ccc(=O)c45)n(-c4ccccc4)c(=O)c23)cn1 [Example 379, (S)-4-((1-(4-chloro-8-(2-ethylpyrimidin-5-yl)-1-oxo-2-phenyl-1,2-dihydroisoquinolin-3-yl)ethyl)amino)pyrido[2,3-d]pyrimidin-5(8H)-one]
96	40	110	82			C[C@H](Nc1ncnc2[nH]ccc(=O)c12)c1c(Cl)c2cccc(-c3ccc(-c4ccccc4)cc3)c2c(=O)n1-c1ccccc1 [Example 254, (S)-4-((1-(8-([1,1′-biphenyl]-4-yl)-4-chloro-1-oxo-2-phenyl-1,2-dihydroisoquinolin-3-yl)ethyl)amino)pyrido[2,3-d]pyrimidin-5(8H)-one]
				9	7	C[C@H](Nc1ncnc2[nH]ccc(=O)c12)c1c(Cl)c2cccc([S@](=N)(=O)c3ncccn3)c2c(=O)n1-c1ccccc1 [Example 421, 4-(((S)-1-(4-chloro-1-oxo-2-phenyl-8-((S)-pyrimidine-2-sulfonimidoyl)-1,2-dihydroisoquinolin-3-yl)ethyl)amino)pyrido[2,3-d]pyrimidin-5(8H)-one]
24	56					C[C@H](Nc1ncnc2[nH]ccc(=O)c12)c1c(Cl)c2cccc(NC(=O)C(C)(C)C)c2c(=O)n1-c1ccccc1 [Example 295, (S)—N-(4-chloro-1-oxo-3-(1-((5-oxo-5,8-dihydropyrido[2,3-d]pyrimidin-4-yl)amino)ethyl)-2-phenyl-1,2-dihydroisoquinolin-8-yl) pivalamide]
